Results published in patent US20230045737A1, “SUBSTITUTED ISOINDOLINONES AS MODULATORS OF CEREBLON-MEDIATED NEO-SUBSTRATE RECRUITMENT” (Vividion Therapeutics, Inc., priority 2018, published 2023).

Target: CRBN-DDB1 (Homo sapiens, UniProt Q96SW2)
Assay: CRBN Fluorescence Polarization Assay with BODIPY-IMid Tracer
Assay type: binding
Parameters: unit not given here
Conditions: competition with 30 nM BODIPY-IMiD tracer for 500 nM CRBN-DDB1, 3-fold serial dilution
Procedure: Promega assay was used to compare bifunctional ligands of the present invention to compete with IMiDs tracer binding to CRBN.
25 uM BODIPY-IMiD tracer (aliquots from Promega 160 uM stock solution)
Buffer: 100 mM Tris pH7.5, 150 mM NaCl, no DTT
Plates: PCR plate 96-well, Black 384-well
384-well plate 20 uL total volume
10 uL of CRBN-DDB1, BODIPY-IMiD added to 10 uL of ligand
A full 384-well assay plate was used to test bifunctional compounds with and without protein, Pomalidomide used as a control. Two 96-well PCR plates were prepared as follows: • 1. Plate 1 • a. To wells A1-A11 on a 96-well PCR plate 100 uM bifunctional compound was added to 40 uL total volume • i. 38 uL of buffer was added • ii. 2 uL was added of 2 mM bifunctional or IMiD compound in DMSO or 2 uL of 0.2 mM for CC220 analogs • b. To well A12 Pomalidomide was added as control • i. 38 uL buffer was added • ii. 2 uL of 2 mM Pomalidomide in DMSO was added • 2. Plate 2 • a. To wells A1-A10 on a 96-well PCR plate 100 uM bifunctional compound was added to 40 uL total volume • i. 38 uL of buffer was added • ii. 2 uL of 2 mM bifunctional compound in DMSO was added • b. To well A11 CC220 control was added • i. 38 uL buffer added • ii. 2 uL of 0.2 mM for CC220 was added • c. To well A12 DMSO control was added • i. Added buffer to 38 uL • ii. Added 2 uL of DMSO • 3. Prepared 7 mL of Buffer with 5% DMSO for serial dilution • a. 26.67 uL to rows B-H on 96-well plate • 4. Serial dilutions of samples in row A1 3-fold • a. 13.3 uL of A1 added to 26.67 uL in A2 • 5. Added 10 uL to 384-well plate • a. Added A1 from Plate 1 to wells A1 and A2 on 384-well plate (top half of 384-well plate) • b. Added A1 from Plate 2 to wells I1 and I2 on 384-well plate ([…] of 384-well plate)
A preparation was made of 500 nM CRBN-DDB1, 30 nM IMiD complex. To 4 mL of the prepared 500 nM CRBN-DDB1, 30 nM BODIPY-IMiD was added 47.6 uL of 46 uM CRBN-DDB1, 3.752 mL of Buffer (4 additions of 938 uL), 200 uL of DMSO, and 4.8 uL of 25 uM BODIPY IMiD stock. This incubated at room temperature for 10 minutes and then 10 uL was added to all wells on 384-well plate except wells M23-24, N23-24, O23-24, P23-24. Gain Control samples were then made consisting of 950 uL of Buffer, 50 uL of DMSO, 1.2 uL of 25 uM BODIPY IMiD stock, and 10 uL was added to wells M23-24, N23-24, O23-24, P23-24.

CRBN-DDB1, sequence (Q96SW2 whole entry): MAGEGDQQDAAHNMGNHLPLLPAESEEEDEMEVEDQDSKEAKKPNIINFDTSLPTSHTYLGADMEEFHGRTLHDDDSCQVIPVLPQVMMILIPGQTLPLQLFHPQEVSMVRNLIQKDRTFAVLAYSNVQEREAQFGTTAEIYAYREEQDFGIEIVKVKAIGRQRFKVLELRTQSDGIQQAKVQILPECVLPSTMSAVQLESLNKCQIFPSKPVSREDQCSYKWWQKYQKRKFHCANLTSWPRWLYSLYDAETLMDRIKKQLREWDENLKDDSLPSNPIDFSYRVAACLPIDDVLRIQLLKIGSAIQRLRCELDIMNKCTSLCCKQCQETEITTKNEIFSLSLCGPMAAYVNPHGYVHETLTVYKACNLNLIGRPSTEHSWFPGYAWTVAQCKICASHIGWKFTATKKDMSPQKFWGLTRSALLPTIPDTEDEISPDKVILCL
CRBN-DDB1, sequence (Q16531 whole entry partner): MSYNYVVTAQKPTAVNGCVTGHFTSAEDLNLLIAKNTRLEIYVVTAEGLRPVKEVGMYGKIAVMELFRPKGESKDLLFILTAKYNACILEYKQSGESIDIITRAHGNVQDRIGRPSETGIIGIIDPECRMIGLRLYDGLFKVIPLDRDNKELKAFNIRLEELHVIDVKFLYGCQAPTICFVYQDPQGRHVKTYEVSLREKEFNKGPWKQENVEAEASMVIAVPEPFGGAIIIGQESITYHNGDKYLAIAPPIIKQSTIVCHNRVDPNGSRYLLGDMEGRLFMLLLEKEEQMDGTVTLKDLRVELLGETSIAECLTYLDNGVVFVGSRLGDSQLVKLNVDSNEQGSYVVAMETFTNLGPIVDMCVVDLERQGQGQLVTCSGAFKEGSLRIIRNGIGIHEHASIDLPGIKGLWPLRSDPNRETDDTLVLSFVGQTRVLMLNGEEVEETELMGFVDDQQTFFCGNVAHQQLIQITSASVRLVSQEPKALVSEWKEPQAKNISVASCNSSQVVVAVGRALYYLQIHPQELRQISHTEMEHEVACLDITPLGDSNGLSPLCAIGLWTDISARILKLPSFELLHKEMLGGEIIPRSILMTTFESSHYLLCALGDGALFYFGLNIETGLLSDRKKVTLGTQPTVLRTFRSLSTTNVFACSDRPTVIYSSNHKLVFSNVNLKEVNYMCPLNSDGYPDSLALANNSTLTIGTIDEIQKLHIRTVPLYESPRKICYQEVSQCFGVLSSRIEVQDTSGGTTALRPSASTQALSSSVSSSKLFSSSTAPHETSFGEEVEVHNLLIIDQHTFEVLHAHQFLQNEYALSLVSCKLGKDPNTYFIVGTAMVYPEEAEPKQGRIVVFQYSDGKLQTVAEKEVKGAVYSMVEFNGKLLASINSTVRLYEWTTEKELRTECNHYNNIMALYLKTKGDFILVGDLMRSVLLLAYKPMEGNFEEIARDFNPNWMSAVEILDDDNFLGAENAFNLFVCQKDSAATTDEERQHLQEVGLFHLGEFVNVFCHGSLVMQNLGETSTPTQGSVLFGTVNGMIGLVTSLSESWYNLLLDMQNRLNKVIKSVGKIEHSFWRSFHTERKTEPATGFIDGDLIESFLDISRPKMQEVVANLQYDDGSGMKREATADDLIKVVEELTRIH

Structure (SMILES) | Result
O=C1CC[C@H](N2Cc3cc(OCc4ccccc4)ccc3C2=O)C(=O)N1 [(S)-3-(5-(benzyloxy)-1-oxoisoindolin-2-yl)piperidine-2,6-dione] | 0.54
O=C1CCC(N2Cc3c(OCc4ccc(Cn5ccnc5)cc4)cccc3C2=O)C(=O)N1 (stereo not drawn) [3-(4-((4-((1H-imidazol-1-yl)methyl)benzyl)oxy)-1-oxoisoindolin-2-yl)piperidine-2,6-dione] | 0.16
O=C1CC[C@H](N2Cc3c(OCc4ccc(Br)cc4)cccc3C2=O)C(=O)N1 [(S)-3-(4-((4-bromobenzyl)oxy)-1-oxoisoindolin-2-yl)piperidine-2,6-dione] | 0.25
COC(=O)C1CCCN(Cc2ccc(COc3cccc4c3CN(C3CCC(=O)NC3=O)C4=O)cc2)C1 (stereo not drawn) [methyl 1-(4-(((2-(2,6-dioxopiperidin-3-yl)-1-oxoisoindolin-4-yl)oxy)methyl)benzyl)piperidine-3-carboxylate] | 0.06
COC(=O)C1CCN(Cc2ccc(COc3cccc4c3CN(C3CCC(=O)NC3=O)C4=O)cc2)C1 (stereo not drawn) [methyl 1-(4-(((2-(2,6-dioxopiperidin-3-yl)-1-oxoisoindolin-4-yl)oxy)methyl)benzyl)pyrrolidine-3-carboxylate] | 0.14
O=C1CC[C@H](N2Cc3c(OCc4ccccc4)ccc(Br)c3C2=O)C(=O)N1 [(S)-3-(4-(benzyloxy)-7-bromo-1-oxoisoindolin-2-yl)piperidine-2,6-dione] | 0.1
Nc1cccc2c1C(=O)N(C1CCC(=O)NC1=O)C2=O (stereo not drawn) [Pomalidomide, pomalidomide, reference compound] | 1.57
O=C1CCC(N2Cc3c(OCc4cc(CN5CCOCC5)ccn4)cccc3C2=O)C(=O)N1 (stereo not drawn) [3-(4-((4-(morpholinomethyl)pyridin-2-yl)methoxy)-1-oxoisoindolin-2-yl)piperidine-2,6-dione] | 0.94
COc1ccc2c(c1)C(=O)N(C1CCC(=O)NC1=O)C2 (stereo not drawn) [3-(6-methoxy-1-oxoisoindolin-2-yl)piperidine-2,6-dione] | 1.43
O=C1CC[C@@H](N2Cc3c(OCc4ccc(CN5CCOCC5)cc4)cccc3C2=O)C(=O)N1 | 0.16
COC(=O)C1CCN(Cc2ccc(COc3cccc4c3CN(C3CCC(=O)NC3=O)C4=O)cc2)CC1 (stereo not drawn) [methyl 1-(4-(((2-(2,6-dioxopiperidin-3-yl)-1-oxoisoindolin-4-yl)oxy)methyl)benzyl)piperidine-4-carboxylate] | 0.05
O=C1CCC(N2Cc3c(OCCO)cccc3C2=O)C(=O)N1 (stereo not drawn) [3-(4-(2-hydroxyethoxy)-1-oxoisoindolin-2-yl)piperidine-2,6-dione] | 0.93
